# In patent publication US10500170B2, “Composition and method for treating neurological disease” (Osmotica Kereskedelmi és Szolgáltató Korlátolt Felelõsségû …, priority 2018, dated 2019):
# Experiments:
# [1] = cited from earlier work
# [2] = cited from earlier work; remark: listed apart in the source
# [3] = Solubility of amantadine HCl in water; assay type: physicochemical; details: 160 mg, 240 mg and 320 mg of amantadine HCl
# plasma proteins = details: concentration range of 0.1 to 2.0 μg/mL; cited from earlier work
smiles,measurement,setting,value
"NC12CC3CC(CC(C3)C1)C2 [Amantadine, amantadine]",elimination half-life change in renal insufficiency,[1]; creatinine clearance less than 40 mL/min/1.73 m^2,increases two to three fold or greater
same,elimination half-life,[1]; patients on chronic maintenance hemodialysis,averages eight days
same,volume of distribution,[2]; after intravenous administration,3 to 8 L/kg
same,reduction of renal clearance of amantadine,[2]; coadministration of quinine or quinidine,about 30%
same,administered dose excreted unchanged in urine,[2]; in vivo,approximately 85%
same,metabolism as share of the total clearance,[2]; in vivo,5-15%
same,Solubility in water,[3],soluble in 250 mL water
same,bound to plasma proteins,plasma proteins,67%
